test system: human GABAB-R (ChEMBL ID: CHEMBL2111463); assay: not given; details: cited from earlier work

Row | Compound | Activity
1 | NCC(O)C[PH](=O)O (stereo not shown) [CHEMBL113453, NCC(O)C[PH](=O)O] | Agonist
2 | NCCC(c1ccc(Cl)cc1)[PH](=O)O (stereo not shown) [CHEMBL114020, NCCC(c1ccc(Cl)cc1)[PH](=O)O] | Agonist
3 | NC(CC[PH](=O)O)c1ccc(Cl)cc1 (stereo not shown) [CHEMBL110306, NC(CC[PH](=O)O)c1ccc(Cl)cc1] | Agonist
4 | CC(NCC(O)CP(=O)(O)Cc1ccccc1)c1ccc(Cl)c(Cl)c1 (stereo not shown) [CHEMBL455185, OC(CP(=O)(Cc1ccccc1)O)CNC(c1ccc(c(c1)Cl)Cl)C] | Antagonist
5 | CC(C)(CO)Cc1cc(C(C)(C)C)c(O)c(C(C)(C)C)c1 [CHEMBL1256697, CC(C)(CO)Cc1cc(C(C)(C)C)c(O)c(C(C)(C)C)c1] | PAM
6 | NCCC(c1ccccc1)[PH](=O)O (stereo not shown) [CHEMBL111127, NCCC(c1ccccc1)[PH](=O)O] | Agonist
7 | CCOC(OCC)P(=O)(O)CCCN [CHEMBL40157, NCCCP(=O)(C(OCC)OCC)O] | Antagonist
8 | NCC(C[PH](=O)O)c1ccc(F)cc1 (stereo not shown) [CHEMBL111378, NCC(C[PH](=O)O)c1ccc(F)cc1] | Agonist
9 | NCC(O)(CS(=O)(=O)O)c1ccc(Cl)cc1 (stereo not shown) [CHEMBL1256573, NCC(c1ccc(cc1)Cl)(CS(=O)(=O)O)O] | Antagonist
10 | NCC(CC(=O)O)c1ccc(Cl)s1 (stereo not shown) [CHEMBL87482, NCC(CC(=O)O)c1ccc(Cl)s1] | Agonist
11 | NCC(C[PH](=O)O)c1ccc(Cl)cc1 (stereo not shown) [CHEMBL430501, NCC(C[PH](=O)O)c1ccc(Cl)cc1] | Agonist
12 | NCC(C[PH](=O)O)c1ccccc1 (stereo not shown) [CHEMBL109752, NCC(C[PH](=O)O)c1ccccc1] | Agonist
13 | CP(=O)(O)CC(O)CN (stereo not shown) [CHEMBL113348, CP(=O)(CC(CN)O)O] | Agonist

target: GABAB-R; assay: not given; details: read-out: Ki value; cited from earlier work

Row | Compound | Ki [nM]
14 | CGP54626 | 7.08

test system: not listed separately; assay: Solubility of stock in 100% DMSO; type: physicochemical; details: stock reduced to 5 mM
Description: The 34 compounds for in vitro testing were purchased from MolPort (https://www.molport.com/). The test compounds were dissolved in 100% DMSO at a stock concentration of 10 mM and stored at −20 °C. […] Stock compounds were subsequently serially diluted in 100% DMSO and finally in a D-glucose solution (20 mM NaOH, 5 mM D-glucose) to obtain final concentrations for testing.

Row | Compound | solubility of 10 mM stock
15 | CN(Cc1ccc(Cl)c(Cl)c1)Cc1nc2ccsc2c(=O)[nH]1 [Compound 5, CN(Cc1ccc(Cl)c(Cl)c1)Cc1nc2ccsc2c(=O)[nH]1] | solubility problems
16 | CSCCC(NC(=O)N1CC(O)=Nc2ccccc21)C(=O)NCc1ccc(Cl)cc1Cl (stereo not shown) [Compound 25, CSCCC(NC(=O)N1CC(O)=Nc2ccccc12)C(=O)NCc1ccc(Cl)cc1Cl] | solubility problems
